{"source": "patent US8269008B2", "about": "“Oxazolopyridine and isoxazolopyridine derivatives for use in the treatment of HIF-mediated conditions” (FibroGen, Inc., priority 2007, dated 2012)"}
{"target": "T1, HIF-PH2 (EGLN1) (Homo sapiens, UniProt Q9GZT9)", "T1 construct": "made in house; host or cells: insect Hi5 cells", "T1 sequence (Q9GZT9 whole entry, species assumed)": "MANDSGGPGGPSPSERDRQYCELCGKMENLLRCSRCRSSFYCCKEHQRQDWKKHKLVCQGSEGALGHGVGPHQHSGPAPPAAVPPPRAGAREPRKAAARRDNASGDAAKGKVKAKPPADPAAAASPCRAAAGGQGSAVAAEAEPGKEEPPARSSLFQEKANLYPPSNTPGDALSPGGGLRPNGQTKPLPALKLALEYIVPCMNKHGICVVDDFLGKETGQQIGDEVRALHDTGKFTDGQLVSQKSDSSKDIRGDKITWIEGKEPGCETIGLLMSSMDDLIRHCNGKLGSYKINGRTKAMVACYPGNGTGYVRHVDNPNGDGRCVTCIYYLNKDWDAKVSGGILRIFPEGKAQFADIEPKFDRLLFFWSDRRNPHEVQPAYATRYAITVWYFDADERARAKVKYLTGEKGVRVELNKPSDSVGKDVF", "experiment": "HIF-PH assay (14CO2 capture, peptide-dependent turnover)", "type": "biochemical", "conditions": "Concentration 22.22 μM", "description": "(§1) Ketoglutaric acid α-[1-^14C]-sodium salt, alpha-ketoglutaric acid sodium salt, and HPLC purified peptide may be obtained from commercial sources, e.g., Perkin-Elmer (Wellesley Mass.), Sigma-Aldrich, and SynPep Corp. (Dublin Calif.), respectively. Peptides for use in the assay may be fragments of HIFα as described above or as disclosed in International Publication WO 2005/118836, incorporated by reference herein. For example, a HLF peptide for use in the HIF-PH assay is [methoxycoumarin]-DLDLEALAPYIPADDDFQL-amide. HIF-PH, e.g., HIF-PH2 (EGLN1), can be expressed in, e.g., insect Hi5 cells, and partially purified, e.g., through a SP ion exchange chromatography column. Enzyme activity is determined by capturing ^14CO2 using an assay described by Kivirikko and Myllyla (1982, Methods Enzymol. 82:245-304). Assay reactions contain 50 mM HEPES (pH 7.4), 100 μM α-ketoglutaric acid sodium salt, 0.30 μCi/mL ketoglutaric acid α-[1-^14C]-sodium salt, 40 μM FeSO4, 1 mM ascorbate, 1541.8 units/mL Catalase, with or without 50 μM peptide substrate and various concentrations of compound of the invention. Reactions are initiated by addition of HIF-PH enzyme.\n(§2) The peptide-dependent percent turnover is calculated by subtracting percent turnover in the absence of peptide from percent turnover in the presence of substrate peptide. Percent inhibition and IC50 are calculated using peptide-dependent percent turnover at given inhibitor concentrations. Calculation of IC50 values for each inhibitor is conducted using GraFit software (Erithacus Software Ltd., Surrey UK). […]", "units": {"inhibition at 22.22 µM": "%"}}
{"smiles": "O=C(O)CNC(=O)c1nc(-c2ccncc2)c2onc(-c3ccccc3)c2c1O", "note": "[Example 36, [(4-Hydroxy-3-phenyl-7-pyridin-4-yl-isoxazolo[5,4-c]pyridine-5-carbonyl)-amino]-acetic acid]", "inhibition at 22.22 µM": 98.5}
{"smiles": "O=C(O)CNC(=O)c1nc(-c2ccccn2)c2onc(-c3ccccc3)c2c1O", "note": "[Example 37, [(4-Hydroxy-3-phenyl-7-pyridin-2-yl-isoxazolo[5,4-c]pyridine-5-carbonyl)-amino]-acetic acid]", "inhibition at 22.22 µM": 99.6}
{"smiles": "O=C(O)CNC(=O)c1nc(C(F)(F)F)c2onc(-c3ccccc3)c2c1O", "note": "[Example 38, [(4-Hydroxy-3-phenyl-7-trifluoromethyl-isoxazolo[5,4-c]pyridine-5-carbonyl)-amino]-acetic acid]", "inhibition at 22.22 µM": 97.8}
{"smiles": "O=C(O)CNC(=O)c1ncc2onc(-c3ccc(OC(F)(F)F)cc3)c2c1O", "note": "[Example 39, {[4-Hydroxy-3-(4-trifluoromethoxy-phenyl)-isoxazolo[5,4-c]pyridine-5-carbonyl]-amino}-acetic acid]", "inhibition at 22.22 µM": 98.7}
{"smiles": "CC(C)(C)c1ccc(-c2noc3cnc(C(=O)NCC(=O)O)c(O)c23)cc1", "note": "[Example 40, {[3-(4-tert-Butyl-phenyl)-4-hydroxy-isoxazolo[5,4-c]pyridine-5-carbonyl]-amino}-acetic acid]", "inhibition at 22.22 µM": 98.8}
{"smiles": "O=C(O)CNC(=O)c1nc(Br)c2onc(-c3ccccc3)c2c1O", "note": "[Example 41, [(7-Bromo-4-hydroxy-3-phenyl-isoxazolo[5,4-c]pyridine-5-carbonyl)-amino]-acetic acid]", "inhibition at 22.22 µM": 99.4}
{"smiles": "COc1ccc(-c2noc3c(O)c(C(=O)NCC(=O)O)nc(-c4ccccc4)c23)cc1", "note": "[Example 55, {[7-Hydroxy-3-(4-methoxy-phenyl)-4-phenyl-isoxazolo[4,5-c]pyridine-6-carbonyl]-amino}-acetic acid]", "inhibition at 22.22 µM": 98.9}
{"smiles": "O=C(O)CNC(=O)c1nc(C#Cc2ccccc2)c2c(-c3ccccc3)noc2c1O", "note": "[Example 57, [(7-Hydroxy-3-phenyl-4-phenylethynyl-isoxazolo[4,5-c]pyridine-6-carbonyl)-amino]-acetic acid]", "inhibition at 22.22 µM": 98.6}
{"smiles": "N#Cc1cccc(-c2noc3cnc(C(=O)NCC(=O)O)c(O)c23)c1", "note": "[Example 67, {[3-(3-Cyano-phenyl)-4-hydroxy-isoxazolo[5,4-c]pyridine-5-carbonyl]-amino}-acetic acid]", "inhibition at 22.22 µM": 98.4}
{"smiles": "N#Cc1ccc(-c2noc3cnc(C(=O)NCC(=O)O)c(O)c23)cc1", "note": "[Example 68, {[3-(4-Cyano-phenyl)-4-hydroxy-isoxazolo[5,4-c]pyridine-5-carbonyl]-amino}-acetic acid]", "inhibition at 22.22 µM": 97.4}
{"smiles": "O=C(O)CNC(=O)c1ncc2onc(-c3ccc(Oc4ccccc4)cc3)c2c1O", "note": "[Example 69, {[4-Hydroxy-3-(4-phenoxy-phenyl)-isoxazolo[5,4-c]pyridine-5-carbonyl]-amino}-acetic acid]", "inhibition at 22.22 µM": 99.8}
{"smiles": "Cc1noc2cnc(C(=O)NCC(=O)O)c(O)c12", "note": "[Example 70, [(4-Hydroxy-3-methyl-isoxazolo[5,4-c]pyridine-5-carbonyl)-amino]-acetic acid]", "inhibition at 22.22 µM": 99.3}
{"target": "T1, HIF-PH2 (EGLN1)", "experiment": "HIF-PH assay (14CO2 capture, peptide-dependent turnover)", "type": "biochemical", "conditions": "Concentration 200.00 μM", "description": "as §1, §2", "units": {"inhibition at 200 µM": "%"}}
{"smiles": "O=C(O)CNC(=O)c1ncc2c(-c3ccccc3)noc2c1O", "note": "[Example 42, [(7-Hydroxy-3-phenyl-isoxazolo[4,5-c]pyridine-6-carbonyl)-amino]-acetic acid]", "inhibition at 200 µM": 98.4}
{"smiles": "C[C@H](NC(=O)c1ncc2c(-c3ccccc3)noc2c1O)C(=O)O", "note": "[Example 43, (S)-2-[(7-Hydroxy-3-phenyl-isoxazolo[4,5-c]pyridine-6-carbonyl)amino]-propionic acid]", "inhibition at 200 µM": 98.7}
{"smiles": "C[C@@H](NC(=O)c1ncc2c(-c3ccccc3)noc2c1O)C(=O)O", "note": "[Example 44, (R)-2-[(7-Hydroxy-3-phenyl-isoxazolo[4,5-c]pyridine-6-carbonyl)-amino]-propionic acid]", "inhibition at 200 µM": 82.2}
{"smiles": "O=C(O)CNC(=O)c1ncc2c(-c3ccc(F)cc3)noc2c1O", "note": "[Example 45, {[3-(4-Fluoro-phenyl)-7-hydroxy-isoxazolo[4,5-c]pyridine-6-carbonyl]-amino}-acetic acid]", "inhibition at 200 µM": 98.6}
{"smiles": "COc1ccc(-c2noc3c(O)c(C(=O)NCC(=O)O)ncc23)cc1", "note": "[Example 46, {[7-Hydroxy-3-(4-methoxy-phenyl)-isoxazolo[4,5-c]pyridine-6-carbonyl]-amino}-acetic acid]", "inhibition at 200 µM": 99.4}
{"smiles": "O=C(O)CNC(=O)c1ncc2c(-c3cccs3)noc2c1O", "note": "[Example 47, [(7-Hydroxy-3-thiophen-2-yl-isoxazolo[4,5-c]pyridine-6-carbonyl)-amino]-acetic acid]", "inhibition at 200 µM": 99}
{"smiles": "O=C(O)CNC(=O)c1ncc2c(-c3ccncc3)noc2c1O", "note": "[Example 48, [(7-Hydroxy-3-pyridin-4-yl-isoxazolo[4,5-c]pyridine-6-carbonyl)-amino]-acetic acid]", "inhibition at 200 µM": 100}
{"smiles": "O=C(O)CNC(=O)c1ncc2c(-c3ccc(Br)o3)noc2c1O", "note": "[Example 49, {[3-(5-Bromo-furan-2-yl)-7-hydroxy-isoxazolo[4,5-c]pyridine-6-carbonyl]-amino}-acetic acid]", "inhibition at 200 µM": 96.3}
{"smiles": "Cc1nc(C(=O)NCC(=O)O)c(O)c2onc(-c3ccccc3)c12", "note": "[Example 50, [(7-Hydroxy-4-methyl-3-phenyl-isoxazolo[4,5-c]pyridine-6-carbonyl)-amino]-acetic acid]", "inhibition at 200 µM": 99.5}
{"smiles": "N#Cc1nc(C(=O)NCC(=O)O)c(O)c2onc(-c3cccs3)c12", "note": "[Example 51, [(4-Cyano-7-hydroxy-3-thiophen-2-yl-isoxazolo[4,5-c]pyridine-6-carbonyl)-amino]-acetic acid]", "inhibition at 200 µM": 98.8}
{"smiles": "N#Cc1nc(C(=O)NCC(=O)O)c(O)c2onc(-c3ccc(F)cc3)c12", "note": "[Example 52, {[4-Cyano-3-(4-fluoro-phenyl)-7-hydroxy-isoxazolo[4,5-c]pyridine-6-carbonyl]-amino}-acetic acid]", "inhibition at 200 µM": 98.6}
{"smiles": "COc1ccc(-c2noc3c(O)c(C(=O)NCC(=O)O)nc(C#N)c23)cc1", "note": "[Example 53, {[4-Cyano-7-hydroxy-3-(4-methoxy-phenyl)-isoxazolo[4,5-c]pyridine-6-carbonyl]-amino}-acetic acid]", "inhibition at 200 µM": 99.4}
{"smiles": "N#Cc1nc(C(=O)NCC(=O)O)c(O)c2onc(-c3ccc(Br)o3)c12", "note": "[Example 54, {[3-(5-Bromo-furan-2-yl)-4-cyano-7-hydroxy-isoxazolo[4,5-c]pyridine-6-carbonyl]-amino}-acetic acid]", "inhibition at 200 µM": 99.9}
{"smiles": "COc1ccc(-c2noc3c(O)c(C(=O)NCC(=O)O)nc(C)c23)cc1", "note": "[Example 56, {[7-Hydroxy-3-(4-methoxy-phenyl)-4-methyl-isoxazolo[4,5-c]pyridine-6-carbonyl]-amino}-acetic acid]", "inhibition at 200 µM": 98.9}
{"smiles": "C#Cc1nc(C(=O)NCC(=O)O)c(O)c2onc(-c3ccccc3)c12", "note": "[Example 58, [(4-Ethynyl-7-hydroxy-3-phenyl-isoxazolo[4,5-c]pyridine-6-carbonyl)-amino]-acetic acid]", "inhibition at 200 µM": 100}
{"smiles": "O=C(O)CNC(=O)c1nc(C2CC2)c2c(-c3cccs3)noc2c1O", "note": "[Example 59, [(4-Cyclopropyl-7-hydroxy-3-thiophen-2-yl-isoxazolo[4,5-c]pyridine-6-carbonyl)-amino]-acetic acid]", "inhibition at 200 µM": 99.3}
{"smiles": "COc1ccc(-c2noc3c(O)c(C(=O)NCC(=O)O)nc(Cn4cccn4)c23)cc1", "note": "[Example 60, {[7-Hydroxy-3-(4-methoxy-phenyl)-4-pyrazol-1-ylmethyl-isoxazolo[4,5-c]pyridine-6-carbonyl]-amino}-acetic acid]", "inhibition at 200 µM": 100}
{"smiles": "CC(=O)c1nc(C(=O)NCC(=O)O)c(O)c2onc(-c3ccccc3)c12", "note": "[Example 61, [(4-Acetyl-7-hydroxy-3-phenyl-isoxazolo[4,5-c]pyridine-6-carbonyl)-amino]-acetic acid]", "inhibition at 200 µM": 100}
{"smiles": "O=C(O)CNC(=O)c1nc(Cc2ccccc2)c2c(-c3ccccc3)noc2c1O", "note": "[Example 62, [(4-Benzyl-7-hydroxy-3-phenyl-isoxazolo[4,5-c]pyridine-6-carbonyl)-amino]-acetic acid]", "inhibition at 200 µM": 100}
{"smiles": "O=C(O)CNC(=O)c1nc(-c2cn(Cc3ccccc3)nn2)c2c(-c3ccccc3)noc2c1O", "note": "[Example 63, {[4-(1-Benzyl-1H-[1,2,3]-triazol-4-yl)-7-hydroxy-3-phenyl-isoxazolo[4,5-c]pyridine-6-carbonyl]-amino}-acetic acid]", "inhibition at 200 µM": 100}
{"smiles": "O=C(O)CNC(=O)c1nc(C(F)(F)F)c2c(-c3ccccc3)noc2c1O", "note": "[Example 64, [(7-Hydroxy-3-phenyl-4-trifluoromethyl-isoxazolo[4,5-c]pyridine-6-carbonyl)-amino]-acetic acid]", "inhibition at 200 µM": 94.2}
{"smiles": "O=C(O)CNC(=O)c1ncc2c(C3=CCCCC3)noc2c1O", "note": "[Example 65, [(3-Cyclohex-1-enyl-7-hydroxy-isoxazolo[4,5-c]pyridine-6-carbonyl)-amino]-acetic acid]", "inhibition at 200 µM": 100}
{"smiles": "CCc1noc2c(O)c(C(=O)NCC(=O)O)ncc12", "note": "[Example 66, [(3-Ethyl-7-hydroxy-isoxazolo[4,5-c]pyridine-6-carbonyl)-amino]-acetic acid]", "inhibition at 200 µM": 99.1}
